# Experiments:
# [1] = target: diheteromeric rat GluN1/GluN2Bc1/GluN2Bc2 (r2Bc1/r2Bc2) (Rattus norvegicus, UniProt P35439+Q00959+Q00960, A876H/F846L/G856D/H848F/K857R/M851T/M860L/Q845K/V861L); test: Concentration-inhibition curves, oocytes, C1/C2-tagged NMDARs; assay type: cell-based
# 5-HT3A = target: T1, 5-HT3A (Homo sapiens, UniProt P46098); test: Off-target ligand-gated ion channels in Xenopus oocytes; assay type: cell-based; settings: agonist 100 µM serotonin; mean ± SEM
# T1 construct: expressed in transfected cells; host or cells: Xenopus oocytes
# Protocol: (§1) EU93-108 was further examined for its behavior against common off-target receptors. First, selectivity for GluN2B over other ion channels in the brain was examined via two-electrode voltage clamp recordings of Xenopus oocytes expressing AMPA, kainate, nicotinic acetylcholine, serotonin, GABA, glycine, and ATP receptors. Current responses were tested with saturating concentrations of agonist in both the absence and presence of 10 μM EU93-108, and confirmed selectivity for GluN2B-containing NMDA receptors over AMPA, kainate, GABA, glycine, ATP, and 5-HT3A receptors (Supporting Table S3).
# (§2) Receptor Agonist % Control
# (§3) Supplemental Table S3. Off-target actions of EU93-108 at ligand-gated ion channels expressed in Xenopus oocytes. The mean ± standard error of the mean for agonist plus 10 μM EU93-108 as a percentage of agonist in vehicle are given for each compound and receptor tested. Number of oocytes tested is given in parentheses.
# GluA1 = target: T2, GluA1 (Homo sapiens, UniProt P42261); test: as above; assay type: cell-based; settings: agonist 100 µM glutamate; mean ± SEM
# T2 construct: expressed in transfected cells; host or cells: Xenopus oocytes
# Protocol: as §1, §2, §3
# GluA2-R607Q = target: T3, GluA2-R607Q (Homo sapiens, UniProt P42262); test: as above; assay type: cell-based; settings: agonist 100 µM glutamate; mean ± SEM
# T3 construct: expressed in transfected cells; host or cells: Xenopus oocytes
# Protocol: as §1, §2, §3
# GluK2 = target: T4, GluK2 (Homo sapiens, UniProt Q13002); test: as above; assay type: cell-based; settings: agonist 100 µM glutamate; mean ± SEM
# T4 construct: expressed in transfected cells; host or cells: Xenopus oocytes
# Protocol: as §1, §2, §3
# hGluA3-L531Y = target: T5, hGluA3-L531Y (Homo sapiens, UniProt P42263, L513Y); test: as above; assay type: cell-based; settings: agonist 100 µM glutamate; mean ± SEM
# T5 construct: expressed in transfected cells; host or cells: Xenopus oocytes
# Protocol: as §1, §2, §3
# hGluN1/GluN3A = target: T6, hGluN1/GluN3A (Homo sapiens, UniProt Q05586+Q8TCU5); test: as above; assay type: cell-based; settings: agonist 100 µM glycine; mean ± SEM
# T6 construct: expressed in transfected cells; host or cells: Xenopus oocytes
# Protocol: as §1, §2, §3
# rGluN1/GluN3B = target: T7, rGluN1/GluN3B (Rattus norvegicus, UniProt P35439+Q8VHN2); test: as above; assay type: cell-based; settings: agonist 100 µM glycine; mean ± SEM
# T7 construct: expressed in transfected cells; host or cells: Xenopus oocytes
# Protocol: as §1, §2, §3
# α1-Glycine = target: T8, α1-Glycine (Homo sapiens, UniProt P23415); test: as above; assay type: cell-based; settings: agonist 100 µM glycine; mean ± SEM
# T8 construct: expressed in transfected cells; host or cells: Xenopus oocytes
# Protocol: as §1, §2, §3
# α1β2γ2S-GABAA = target: T9, α1β2γ2S-GABAA (Homo sapiens, UniProt P14867+P18507+P47870); test: as above; assay type: cell-based; settings: agonist 100 µM GABA; mean ± SEM
# T9 construct: expressed in transfected cells; host or cells: Xenopus oocytes
# Protocol: as §1, §2, §3
# α4β2-nACh = target: T10, α4β2-nACh (Homo sapiens, UniProt P17787+P43681); test: as above; assay type: cell-based; settings: agonist 10 µM acetylcholine; mean ± SEM
# T10 construct: expressed in transfected cells; host or cells: Xenopus oocytes
# Protocol: as §1, §2, §3
# α7-nACh = target: T11, α7-nACh (Homo sapiens, UniProt P36544); test: as above; assay type: cell-based; settings: agonist 300 µM acetylcholine; mean ± SEM
# T11 construct: expressed in transfected cells; host or cells: Xenopus oocytes
# Protocol: as §1, §2, §3
# ρ-GABAC = test: as above; assay type: cell-based; settings: agonist 100 µM GABA; mean ± SEM
# Protocol: as §1, §2, §3
# GABAA = test: Radioligand binding assay (NIMH PDSP); set-up: species or system human; settings: primary screen, 10 µM, quadruplicate
# Protocol: (§4) Conventional competition and saturation radioligand binding assays were used to determine the affinities of reference standards and EU93-108. Experiments were carried out by the NIMH Psychoactive Drug Screening Program (PDSP) and were performed as previously described.[123]
# (§5) The detailed experimental protocols for the radioligand assays are available on the NIMH PDSP website at https://pdsp.unc.edu/pdspweb/content/UNC-CH%20Protocol%20Book.pdf.
# (§6) Receptor Mean % Receptor Mean % Receptor Mean %
# (§7) Inhibition Inhibition Inhibition
# (§8) Supplemental Table S4. Off-Target Actions of EU93-108: Primary GPCR Screen. Cloned human molecular targets were individually expressed and submitted to molecular target-based screening with initial screens performed at a final concentration of 10 µM in quadruplicate. Complete protocols for the assays have been previously published (Besnard J et al. 2012). Where inhibition greater than 50% was measured, secondary screens were performed wherein Ki values were calculated (see Table 4).
# PBR = test: Radioligand binding assay (NIMH PDSP); set-up: species or system human; settings: primary screen, 10 µM, quadruplicate
# Protocol: as §4, §5, §6, §7, §8
# in vivo = test: in vivo; set-up: species or system mice; settings: C57BL/6J, mouse, ip
# Protocol: Some NMDAR antagonists can impact locomotor behavior in animals.[84]−[86] Lower doses have minimal impact while high doses can have anesthetic action that can produce complete immobility. We evaluated this potential side effect in a locomotor assay using a range of doses of EU93-108.
# For both male and female mice, n = 8 mice per group were used. Locomotor activity was assessed at 3, 5, 7, 10, 20, and 30 mg/kg EU93-108. Mice were brought to the experiment room the night before and given ad libitum access to food and water. Each mouse was given an i.p. injection of the appropriate dose or vehicle 30 min prior to starting the locomotor boxes (Versamax420 Animal Activity Monitoring System, AccuScan Instruments, Inc., Columbus, OH). Movements of the mice were tracked for 1 h then the mice were placed back in their cages. Data were analyzed using one-way ANOVA and Dunnett’s post hoc test for multiple comparisons where each group was compared to vehicle. Data are presented as mean ± SEM.
# GluN1/GluN2B = GluN1/GluN2B (Rattus norvegicus, UniProt P35439+Q00960)
# GluN1/GluN2A = GluN1/GluN2A (Rattus norvegicus, UniProt P35439+Q00959)
# [2] = agonist 100 µM glutamate, 30 µM glycine, mean ± SEM
# [3] = read-out: Mean % Inhibition by 10 μM EU93-108
# Sequence of GluN1/GluN2B (Q00960 27-1482, other chains not shown): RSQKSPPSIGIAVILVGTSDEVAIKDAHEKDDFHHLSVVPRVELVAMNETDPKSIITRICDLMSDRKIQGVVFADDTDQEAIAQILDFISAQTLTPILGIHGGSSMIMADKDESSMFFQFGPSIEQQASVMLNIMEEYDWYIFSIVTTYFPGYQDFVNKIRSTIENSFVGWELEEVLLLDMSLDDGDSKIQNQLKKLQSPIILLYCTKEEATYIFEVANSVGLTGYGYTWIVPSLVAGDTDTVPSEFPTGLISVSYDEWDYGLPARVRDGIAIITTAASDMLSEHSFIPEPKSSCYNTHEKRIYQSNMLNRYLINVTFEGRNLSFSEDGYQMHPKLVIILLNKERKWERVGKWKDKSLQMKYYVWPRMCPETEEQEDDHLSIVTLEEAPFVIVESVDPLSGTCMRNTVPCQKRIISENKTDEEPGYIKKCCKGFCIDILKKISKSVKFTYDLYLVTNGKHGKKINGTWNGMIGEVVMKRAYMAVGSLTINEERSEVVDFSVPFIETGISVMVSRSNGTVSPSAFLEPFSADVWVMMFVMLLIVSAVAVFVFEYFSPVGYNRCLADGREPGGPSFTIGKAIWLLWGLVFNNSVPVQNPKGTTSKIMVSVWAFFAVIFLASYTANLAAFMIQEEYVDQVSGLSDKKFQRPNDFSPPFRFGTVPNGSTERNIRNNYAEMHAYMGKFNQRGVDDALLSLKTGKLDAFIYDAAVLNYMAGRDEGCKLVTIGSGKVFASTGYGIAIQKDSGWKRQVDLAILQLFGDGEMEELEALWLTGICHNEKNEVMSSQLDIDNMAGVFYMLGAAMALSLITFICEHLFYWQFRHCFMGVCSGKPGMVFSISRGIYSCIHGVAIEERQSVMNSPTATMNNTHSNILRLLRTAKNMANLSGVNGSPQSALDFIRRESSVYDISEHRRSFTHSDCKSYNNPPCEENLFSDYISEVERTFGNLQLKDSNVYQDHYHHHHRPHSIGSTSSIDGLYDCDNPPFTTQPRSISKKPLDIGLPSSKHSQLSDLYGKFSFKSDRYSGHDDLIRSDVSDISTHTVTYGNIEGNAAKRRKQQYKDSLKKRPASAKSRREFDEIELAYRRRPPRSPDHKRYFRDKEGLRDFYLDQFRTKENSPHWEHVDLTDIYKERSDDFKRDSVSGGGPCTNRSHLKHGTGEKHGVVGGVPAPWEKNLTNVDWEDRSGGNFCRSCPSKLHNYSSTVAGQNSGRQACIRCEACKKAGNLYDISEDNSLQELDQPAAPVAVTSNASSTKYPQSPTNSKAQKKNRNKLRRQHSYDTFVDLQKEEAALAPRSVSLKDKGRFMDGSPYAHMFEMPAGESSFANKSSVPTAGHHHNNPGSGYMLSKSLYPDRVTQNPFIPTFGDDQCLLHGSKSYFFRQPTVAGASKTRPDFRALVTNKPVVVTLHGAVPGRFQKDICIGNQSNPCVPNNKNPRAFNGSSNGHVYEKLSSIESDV
# Sequence of diheteromeric rat GluN1/GluN2Bc1/GluN2Bc2 (r2Bc1/r2Bc2) (Q00960+Q00959 fused with the stated changes, other chains not shown): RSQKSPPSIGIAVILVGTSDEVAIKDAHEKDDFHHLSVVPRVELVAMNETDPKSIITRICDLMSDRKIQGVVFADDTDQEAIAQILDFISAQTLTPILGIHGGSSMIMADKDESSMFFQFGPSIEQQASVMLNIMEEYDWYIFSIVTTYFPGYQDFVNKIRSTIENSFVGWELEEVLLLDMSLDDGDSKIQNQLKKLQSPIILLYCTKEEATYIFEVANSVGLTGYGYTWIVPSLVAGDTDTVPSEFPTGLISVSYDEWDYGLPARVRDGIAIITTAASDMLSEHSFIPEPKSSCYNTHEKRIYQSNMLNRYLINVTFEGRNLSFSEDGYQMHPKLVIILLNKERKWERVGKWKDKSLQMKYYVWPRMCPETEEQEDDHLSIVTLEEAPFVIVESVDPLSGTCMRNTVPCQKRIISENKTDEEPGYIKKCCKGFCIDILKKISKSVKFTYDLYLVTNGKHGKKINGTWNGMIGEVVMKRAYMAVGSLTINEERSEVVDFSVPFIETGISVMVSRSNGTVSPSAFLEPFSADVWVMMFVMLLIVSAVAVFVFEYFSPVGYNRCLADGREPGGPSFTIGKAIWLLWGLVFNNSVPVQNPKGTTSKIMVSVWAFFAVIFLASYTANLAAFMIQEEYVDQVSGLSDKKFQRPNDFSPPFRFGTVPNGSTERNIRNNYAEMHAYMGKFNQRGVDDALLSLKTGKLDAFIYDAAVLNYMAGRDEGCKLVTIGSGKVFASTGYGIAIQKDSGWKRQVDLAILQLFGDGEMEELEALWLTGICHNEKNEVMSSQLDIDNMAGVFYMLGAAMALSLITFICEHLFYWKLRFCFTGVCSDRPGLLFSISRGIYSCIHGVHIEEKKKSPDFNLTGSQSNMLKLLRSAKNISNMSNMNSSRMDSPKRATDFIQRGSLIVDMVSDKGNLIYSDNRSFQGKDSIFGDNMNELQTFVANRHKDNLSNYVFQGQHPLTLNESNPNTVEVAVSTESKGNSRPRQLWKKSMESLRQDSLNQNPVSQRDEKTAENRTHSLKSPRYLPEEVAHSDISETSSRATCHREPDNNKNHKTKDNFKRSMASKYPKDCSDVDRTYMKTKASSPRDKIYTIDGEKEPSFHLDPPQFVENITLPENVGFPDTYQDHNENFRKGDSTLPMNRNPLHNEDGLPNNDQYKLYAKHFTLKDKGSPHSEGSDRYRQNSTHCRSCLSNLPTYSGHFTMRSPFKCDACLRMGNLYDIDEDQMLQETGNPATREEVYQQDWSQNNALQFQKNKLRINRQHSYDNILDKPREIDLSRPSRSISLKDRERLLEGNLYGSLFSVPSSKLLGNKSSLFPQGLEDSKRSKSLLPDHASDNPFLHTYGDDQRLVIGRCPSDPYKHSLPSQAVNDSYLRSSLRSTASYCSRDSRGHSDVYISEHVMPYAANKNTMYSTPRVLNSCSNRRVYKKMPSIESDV
# Sequence of diheteromeric rat GluN1/GluN2Bc1/GluN2Bc2 (r2Bc1/r2Bc2) (Q00960+Q00959 fused with the stated changes, other chains not shown): as above
# T11 sequence (P36544 23-502): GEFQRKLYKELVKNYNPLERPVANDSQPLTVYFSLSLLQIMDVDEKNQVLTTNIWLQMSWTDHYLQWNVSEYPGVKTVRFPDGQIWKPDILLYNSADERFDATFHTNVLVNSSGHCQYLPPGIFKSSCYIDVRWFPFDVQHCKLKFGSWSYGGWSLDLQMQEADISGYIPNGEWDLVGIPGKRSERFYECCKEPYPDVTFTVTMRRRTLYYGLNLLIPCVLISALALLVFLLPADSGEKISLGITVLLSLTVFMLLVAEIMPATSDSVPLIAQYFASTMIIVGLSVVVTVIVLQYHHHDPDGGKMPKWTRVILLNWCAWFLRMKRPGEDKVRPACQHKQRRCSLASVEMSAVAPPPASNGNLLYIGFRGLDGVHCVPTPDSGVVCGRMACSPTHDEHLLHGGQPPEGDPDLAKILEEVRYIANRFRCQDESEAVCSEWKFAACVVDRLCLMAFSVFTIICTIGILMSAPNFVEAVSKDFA
smiles,measurement,setting,value
"CS(=O)(=O)Nc1ccc(OC[C@@H](O)CN2CCN(c3ccc(F)c(F)c3)CC2)cc1 [EU93-108, (S)-N-(4-(3-(4-(3,4-Difluorophenyl)piperazin-1-yl)-2-hydroxypropoxy)phenyl)methanesulfonamide]",residual current remaining at 10 μM EU93-108,"[1]; 10 μM, % of maximal response, n = 8",10.6%
same,IC50,"[1]; 100 μM glutamate and 100 μM glycine, −40 mV, pH 7.4, n = 8",233 nM
same,nH,"[1]; Hill slope factor of the inhibition curve, Table S1",-1.06
same,Ymin,"[1]; residual response, Table S1, N = 8",10.6
same,% Control 10 µM EU93-108,5-HT3A,92.8 ± 2.7%
same,% Control 10 µM EU93-108,GluA1,101.3 ± 1.9%
same,% Control 10 µM EU93-108,GluA2-R607Q,98.4 ± 0.57%
same,% Control 10 µM EU93-108,GluK2,88.1 ± 4.4%
same,% Control 10 µM EU93-108,hGluA3-L531Y,94.7 ± 5.1%
same,% Control 10 µM EU93-108,hGluN1/GluN3A,103.6 ± 1.7%
same,% Control 10 µM EU93-108,rGluN1/GluN3B,108.8 ± 4.0%
same,% Control 10 µM EU93-108,α1-Glycine,105 ± 6.6%
same,% Control 10 µM EU93-108,α1β2γ2S-GABAA,92.8 ± 1.5%
same,% Control 10 µM EU93-108,α4β2-nACh,3.2 ± 0.7%
same,% Control 10 µM EU93-108,α7-nACh,70.9 ± 6.5%
same,% Control 10 µM EU93-108,ρ-GABAC,97 ± 1.5%
same,Mean % Inhibition,GABAA,1.91%
same,Mean % Inhibition,PBR,-0.34%
same,ED50 at 1 h,in vivo; female,15.2 mg/kg
same,ED50 at 1 h,in vivo; male,13.5 mg/kg
same,% Control 10 µM EU93-108,GluN1/GluN2B; [2],13.2 ± 6.1%
same,inhibition of GluN2B relative to the other NMDAR subunits,GluN1/GluN2B; at 10 μM,approximately 18 fold
same,inhibition at 10 µM,GluN1/GluN2B; [3],86.8 ± 6.1%
same,% Control 10 µM EU93-108,GluN1/GluN2A; [2],95.6 ± 1.6%
same,inhibition at 10 µM,GluN1/GluN2A; [3],4.6 ± 1.5%

# — article PMC9983021, “Novel GluN2B-Selective NMDA Receptor Negative Allosteric Modulator Possesses Intrinsic Analgesic Properties and Enhances Analgesia of Morphine in a Rodent Tail Flick Pain Model” (ACS Chemical Neuroscience, 2023)
